Experimental data taken from US20020035061A1, “COMPOSITIONS AND METHODS FOR TREATING INFECTIONS USING CATIONIC PEPTIDES ALONE OR IN COMBINATION WITH ANTIBIOTICS” (priority 1996, published 2002).
Read-outs that look alike come from different tables or passages of the source.

Tests used:
Type in all cases: cell-based
E. cloacae = system: E. cloacae
S. epidermidis = system: S. epidermidis
S. marcescens = system: S. marcescens
K. pneumoniae = system: K. pneumoniae
S. aureus = system: S. aureus
S. maltophilia = system: S. maltophilia
A. calcoaceticus = system: A. calcoaceticus
E. coli = system: E. coli
E. faecalis = system: E. faecalis
P. aeruginosa = system: P. aeruginosa
[1] = system: inherently resistant microorganisms; experiment: microbe, parasite or virus in culture
[2] = system: vancomycin / teicoplanin resistant enterococci; experiment: microbe, parasite or virus in culture; conditions: for Peptide MIC Alone: Amikacin section; for FIC: peptide + Amikacin
bacterial isolates = experiment: microbe, parasite or virus in culture
[3] = system: microorganisms with acquired resistance; experiment: microbe, parasite or virus in culture; conditions: for Peptide MIC Alone: Gentamicin section; for FIC: peptide + Gentamicin

For ILKKNPNNPRRK [MBI 11G6ACN], the MIC (E. cloacae; E. cloacae strain ECL007) was over 128 µg/mL, the MIC (S. epidermidis; S. epidermidis strain SE010) was 32 µg/mL and the MIC (S. marcescens; S. marcescens strain SMS003) was over 128 µg/mL. The MIC (K. pneumoniae; K. pneumoniae strain KP001) was over 128 µg/mL, the MIC (S. aureus; S. aureus strain SA014) was 64 µg/mL and the MIC (S. maltophilia; S. maltophilia strain SMA002) was over 128 µg/mL. It also gave an MIC (A. calcoaceticus; A. calcoaceticus strain AC002) of 4 µg/mL, an MIC (E. coli; E. coli strain ECO005) of 64 µg/mL and an MIC (E. faecalis; E. faecalis strain EFS008) of over 128 µg/mL. For the same sequence, the MIC (P. aeruginosa; P. aeruginosa strain PA004) was over 128 µg/mL.
Sequence ILKKWPNNPNRRK [MBI 11CNW1] has an MIC (E. cloacae; E. cloacae ECL007) of 64 µg/mL, an MIC (S. marcescens; S. marcescens SMS003) of over 128 µg/mL and an MIC (K. pneumoniae; K. pneumoniae KP001) of 32 µg/mL. For the same sequence, the MIC (S. aureus; S. aureus SA010) was 4 µg/mL, the MIC (S. maltophilia; S. maltophilia SMA002) was 32 µg/mL and the MIC (A. calcoaceticus; A. calcoaceticus AC002) was 8 µg/mL. For the same sequence, the MIC (E. coli; E. coli ECO005) was 32 µg/mL, the MIC (E. faecalis; E. faecalis EFS001) was 8 µg/mL and the MIC (P. aeruginosa; P. aeruginosa PA004) was 64 µg/mL.
With ILKKWPWWPWRRK [MBI 11ACN] the MIC (E. cloacae; E. cloacae ECL007) was over 128 µg/mL, the MIC (S. epidermidis; S. epidermidis SE010) was 4 µg/mL and the MIC (S. marcescens; S. marcescens SMS003) was over 128 µg/mL. It also gave an MIC (K. pneumoniae; K. pneumoniae KP001) of 16 µg/mL, an MIC (S. aureus; S. aureus SA014) of 8 µg/mL and an MIC (S. maltophilia; S. maltophilia SMA002) of 64 µg/mL. For the same sequence, the MIC (A. calcoaceticus; A. calcoaceticus AC002) was 2 µg/mL, the MIC (E. coli; E. coli ECO005) was 16 µg/mL and the MIC (E. faecalis; E. faecalis EFS004) was 8 µg/mL. The MIC (E. faecalis; E. faecalis EFS008) was 64 µg/mL and the MIC (P. aeruginosa; P. aeruginosa PA004) was over 128 µg/mL.
Work on ILPWKWPWWPWRR [MBI 10] yielded an MIC (S. marcescens; S. marcescens SMS003) of over 128 µg/mL, an MIC (K. pneumoniae; K. pneumoniae KP001) of 128 µg/mL and an MIC (S. aureus; S. aureus SA007) of 2 µg/mL. The MIC (S. maltophilia; S. maltophilia SMA001) was 128 µg/mL, the MIC (A. calcoaceticus; A. calcoaceticus AC001) was 128 µg/mL and the MIC (E. coli; E. coli ECO002) was 128 µg/mL. For the same sequence, the MIC (E. faecalis; E. faecalis EFS004) was 8 µg/mL and the MIC (P. aeruginosa; P. aeruginosa PA003) was over 128 µg/mL.
For ILRAPWWPWRRK [MBI 11H04CN], the MIC (E. cloacae; E. cloacae ECL007) was over 128 µg/mL, the MIC (S. epidermidis; S. epidermidis SE010) was 16 µg/mL and the MIC (S. marcescens; S. marcescens SMS003) was over 128 µg/mL. For the same sequence, the MIC (K. pneumoniae; K. pneumoniae KP001) was 64 µg/mL, the MIC (S. aureus; S. aureus SA014) was 4 µg/mL and the MIC (S. aureus; S. aureus SA093) was 2 µg/mL. The MIC (S. maltophilia; S. maltophilia SMA002) was over 128 µg/mL, the MIC (A. calcoaceticus; A. calcoaceticus AC002) was 8 µg/mL and the MIC (E. coli; E. coli ECO005) was 32 µg/mL. The MIC (E. faecalis; E. faecalis EFS001) was 2 µg/mL, the MIC (E. faecalis; E. faecalis EFS008) was 8 µg/mL and the MIC (P. aeruginosa; P. aeruginosa PA004) was over 128 µg/mL.
ILRNPNNPNRRK [MBI 11B7CNF12] showed an MIC (S. marcescens; S. marcescens strain SMS003) of over 128 µg/mL, an MIC (K. pneumoniae; K. pneumoniae strain KP001) of 16 µg/mL and an MIC (S. maltophilia; S. maltophilia strain SMA002) of 64 µg/mL. For the same sequence, the MIC (A. calcoaceticus; A. calcoaceticus strain AC002) was 4 µg/mL, the MIC (E. coli; E. coli strain ECO005) was 16 µg/mL and the MIC (E. faecalis; E. faecalis strain EFS001) was 2 µg/mL. It also gave an MIC (P. aeruginosa; P. aeruginosa strain PA004) of over 128 µg/mL.
In the case of KWKLFIKKLTPAVKKVLLTGLPALIS [MBI 29F1], the “Peptide MIC + Amikacin” value ([1]; A. baumannii) is reported as 2 µg/mL, the “Peptide MIC Alone” value ([1]; A. baumannii, Amikacin section) is reported as 8 µg/mL and the “Peptide MIC + Amikacin” value ([1]; S. maltophilia) is reported as 2 µg/mL. The FIC ([1]; peptide + Amikacin, A. baumannii) was 0.75, the “Amikacin MIC + Peptide” value ([2]; E. faecalis EFS008) was 4 µg/mL and the “Peptide MIC + Amikacin” value ([2]; E. faecalis EFS008) was 0.5 µg/mL. The “Peptide MIC Alone” value ([2]; E. faecalis EFS008) was 4 µg/mL, the “Amikacin MIC + Peptide” value ([2]; E. faecium EFM004) was 8 µg/mL and the “Peptide MIC + Amikacin” value ([2]; E. faecium EFM004) was 16 µg/mL. For the same sequence, the “Peptide MIC Alone” value ([2]; E. faecium EFM004) was 32 µg/mL, the FIC ([2]; E. faecalis EFS008) was 0.19 and the FIC ([2]; E. faecium EFM004) was 0.53. For the same sequence, the “Peptide MIC Alone” value (bacterial isolates; 1. Amikacin, A. baumannii ABI001) was 8 µg/mL, the “Peptide MIC Alone” value (bacterial isolates; 1. Amikacin, A. baumannii ABI003) was 4 µg/mL and the “Peptide MIC Alone” value (bacterial isolates; 1. Amikacin, E. coli ECO022) was 4 µg/mL. The “Peptide MIC Alone” value (bacterial isolates; 1. Amikacin, E. faecalis EFS008) was 4 µg/mL, the “Peptide MIC Alone” value (bacterial isolates; 1. Amikacin, E. faecium EFM004) was 32 µg/mL and the “Peptide MIC Alone” value (bacterial isolates; 1. Amikacin, P. aeruginosa PA022) was 4 µg/mL. The “Peptide MIC Alone” value (bacterial isolates; 1. Amikacin, S. aureus SA014 MRSA) was 4 µg/mL, the “Peptide MIC Alone” value (bacterial isolates; 1. Amikacin, S. epidermidis SE002) was 32 µg/mL and the “Peptide MIC Alone” value (bacterial isolates; 1. Amikacin, S. epidermidis SE003) was 32 µg/mL. For the same sequence, the “Peptide MIC Alone” value (bacterial isolates; 1. Amikacin, S. maltophilia SMA021) was 8 µg/mL, the “Peptide MIC Alone” value (bacterial isolates; 1. Amikacin, S. maltophilia SMA022) was 16 µg/mL and the “Peptide MIC Alone” value (bacterial isolates; 4. Gentamicin, P. aeruginosa PA023) was 128 µg/mL. The “Peptide MIC Alone” value (bacterial isolates; 4. Gentamicin, S. maltophilia SMA016) was 32 µg/mL, the “Peptide MIC Alone” value (bacterial isolates; 4. Gentamicin, S. maltophilia SMA017) was 4 µg/mL and the “Amikacin MIC + Peptide” value (bacterial isolates; A. baumannii ABI001) was 0.25 µg/mL. For the same sequence, the “Peptide MIC + Amikacin” value (bacterial isolates; A. baumannii ABI001) was 4 µg/mL, the “Amikacin MIC + Peptide” value (bacterial isolates; A. baumannii ABI003) was 2 µg/mL and the “Peptide MIC + Amikacin” value (bacterial isolates; A. baumannii ABI003) was 2 µg/mL. The “Peptide MIC + Amikacin” value (bacterial isolates; E. coli ECO022) was 2 µg/mL, the “Amikacin MIC + Peptide” value (bacterial isolates; E. faecalis EFS008) was 16 µg/mL and the “Peptide MIC + Amikacin” value (bacterial isolates; E. faecalis EFS008) was 0.125 µg/mL. The “Amikacin MIC + Peptide” value (bacterial isolates; E. faecium EFM004) was 32 µg/mL, the “Peptide MIC + Amikacin” value (bacterial isolates; E. faecium EFM004) was 8 µg/mL and the “Amikacin MIC + Peptide” value (bacterial isolates; P. aeruginosa PA022) was 64 µg/mL. For the same sequence, the “Peptide MIC + Amikacin” value (bacterial isolates; P. aeruginosa PA022) was 0.125 µg/mL, the “Gentamicin MIC + Peptide” value (bacterial isolates; P. aeruginosa PA023) was 0.125 µg/mL and the “Peptide MIC + Gentamicin” value (bacterial isolates; P. aeruginosa PA023) was 64 µg/mL. For the same sequence, the “Amikacin MIC + Peptide” value (bacterial isolates; S. aureus SA014 MRSA) was 16 µg/mL, the “Peptide MIC + Amikacin” value (bacterial isolates; S. aureus SA014 MRSA) was 0.125 µg/mL and the “Amikacin MIC + Peptide” value (bacterial isolates; S. epidermidis SE002) was 16 µg/mL. The “Peptide MIC + Amikacin” value (bacterial isolates; S. epidermidis SE002) was 4 µg/mL, the “Amikacin MIC + Peptide” value (bacterial isolates; S. epidermidis SE003) was 16 µg/mL and the “Peptide MIC + Amikacin” value (bacterial isolates; S. epidermidis SE003) was 8 µg/mL. The “Gentamicin MIC + Peptide” value (bacterial isolates; S. maltophilia SMA016) was 16 µg/mL, the “Peptide MIC + Gentamicin” value (bacterial isolates; S. maltophilia SMA016) was 16 µg/mL and the “Gentamicin MIC + Peptide” value (bacterial isolates; S. maltophilia SMA017) was 32 µg/mL. For the same sequence, the “Peptide MIC + Gentamicin” value (bacterial isolates; S. maltophilia SMA017) was 0.125 µg/mL, the “Amikacin MIC + Peptide” value (bacterial isolates; S. maltophilia SMA021) was 8 µg/mL and the “Peptide MIC + Amikacin” value (bacterial isolates; S. maltophilia SMA021) was 2 µg/mL. For the same sequence, the “Amikacin MIC + Peptide” value (bacterial isolates; S. maltophilia SMA022) was 16 µg/mL, the “Peptide MIC + Amikacin” value (bacterial isolates; S. maltophilia SMA022) was 4 µg/mL and the FIC (bacterial isolates; peptide + Amikacin, A. baumannii ABI001) was 0.51. The FIC (bacterial isolates; peptide + Amikacin, A. baumannii ABI003) was 0.63, the FIC (bacterial isolates; peptide + Amikacin, E. coli ECO022) was 0.51 and the FIC (bacterial isolates; peptide + Amikacin, E. faecalis EFS008) was 0.28. It also gave an FIC (bacterial isolates; peptide + Amikacin, E. faecium EFM004) of 0.38, an FIC (bacterial isolates; peptide + Amikacin, P. aeruginosa PA022) of 0.53 and an FIC (bacterial isolates; peptide + Amikacin, S. aureus SA014 MRSA) of 0.53. It also gave an FIC (bacterial isolates; peptide + Amikacin, S. epidermidis SE002) of 0.38, an FIC (bacterial isolates; peptide + Amikacin, S. epidermidis SE003) of 0.50 and an FIC (bacterial isolates; peptide + Amikacin, S. maltophilia SMA021) of 0.31. The FIC (bacterial isolates; peptide + Amikacin, S. maltophilia SMA022) was 0.31, the FIC (bacterial isolates; peptide + Gentamicin, P. aeruginosa PA023) was 0.52 and the FIC (bacterial isolates; peptide + Gentamicin, S. maltophilia SMA016) was 0.56. The FIC (bacterial isolates; peptide + Gentamicin, S. maltophilia SMA017) was 0.53, the “Gentamicin MIC + Peptide” value ([3]; A. calcoaceticus AC001) was 2 µg/mL and the “Peptide MIC + Gentamicin” value ([3]; A. calcoaceticus AC001) was 4 µg/mL. For the same sequence, the “Peptide MIC Alone” value ([3]; A. calcoaceticus AC001) was 8 µg/mL, the “Gentamicin MIC + Peptide” value ([3]; P. aeruginosa PA023) was 0.125 µg/mL and the “Peptide MIC + Gentamicin” value ([3]; P. aeruginosa PA023) was 64 µg/mL. For the same sequence, the “Peptide MIC Alone” value ([3]; P. aeruginosa PA023) was 128 µg/mL, the FIC ([3]; A. calcoaceticus AC001) was 0.75 and the FIC ([3]; P. aeruginosa PA023) was 0.52.
